Measured values as given in ChEMBL document CHEMBL1140364, “Anxiolytic effects of benzalphthalides” (2005).

Key:
Type in all cases: functional
[1] = test system: Mus musculus; test: Number of entries into the open arms of the maze for anxiolytic activity in ICR mouse through elevated plus maze test after intraperitoneal injection of 15 mg/kg
[2] = test system: Mus musculus; test: Percentage number of entries into the open arms of the maze for anxiolytic activity in ICR mouse through elevated plus test after intraperitoneal injection of 15 mg/kg
[3] = test system: Mus musculus; test: Time spent into the open arms of the maze for anxiolytic activity in ICR mouse through elevated plus maze test after intraperitoneal injection of 15 mg/kg
[4] = test system: Mus musculus; test: Number of entries into the closed arms of the maze for anxiolytic activity in ICR mouse through elevated plus test after intraperitoneal injection of 15 mg/kg
[5] = test system: Mus musculus; test: Total number of entries into the open and closed arms of the maze for anxiolytic activity in ICR mouse through elevated plus test after intraperitoneal injection of 15 mg/kg

Row | SMILES | No. of entries [1] | No. of entries [2] | Spent time [3] | No. of entries [4] | Total number of entries [5]
1 | CN1C(=O)CN=C(c2ccccc2)c2cc(Cl)ccc21 [DIAZEPAM] | 15.8 | 82% | 0.064 h | 3.7 | 19.5
2 | COc1ccc(/C=C2\OC(=O)c3cc([N+](=O)[O-])c([N+](=O)[O-])cc32)cc1 | 11.7 | 51.7% | 0.0359 h | 10.5 | 22.2
3 | O=C1O/C(=C\c2ccc(Cl)cc2)c2ccccc21 | 8 | 55.8% | 0.0444 h | 8.5 | 16.5
4 | COc1cc(/C=C2\OC(=O)c3ccccc32)cc(OC)c1OC | 8.3 | 44.8% | 0.0296 h | 9 | 17.3
5 | COc1ccc(/C=C2\OC(=O)c3ccc(C(N)=O)cc32)cc1 | 13 | 50.2% | 0.0348 h | 11.5 | 24
6 | C=C(C)[C@@H]1[C@H]2OC(=O)[C@@H]1[C@]1(O)C[C@H]3OC34C(=O)O[C@H]2[C@@]41C.CC(C)(O)[C@@H]1[C@H]2OC(=O)[C@@H]1[C@]1(O)C[C@H]3OC34C(=O)O[C@H]2[C@@]41C (stereo not given in full) [PICROTOXIN] | 2.5 | 19% | 0.00739 h | 9.4 | 11.8
7 | C[S+]([O-])c1ccc(/C=C2\OC(=O)c3ccccc32)cc1 (stereo not given) | 10.8 | 55.6% | 0.0427 h | 9 | 19.8
8 | COc1ccc(/C=C2\OC(=O)c3ccccc32)cc1 | 13 | 64.1% | 0.0493 h | 7.1 | 20.1
9 | O=C1O/C(=C\c2ccc3c(c2)OCO3)c2ccccc21 | 11.2 | 54.4% | 0.0418 h | 9 | 20.2
10 | CS(=O)(=O)c1ccc(/C=C2\OC(=O)c3ccccc32)cc1 | 10.6 | 69.9% | 0.052 h | 5.6 | 16.4
11 | O=C1O/C(=C\c2ccc([N+](=O)[O-])cc2)c2ccccc21 | 9 | 57.2% | 0.0441 h | 7.3 | 16.3
12 | CCCCCCCCCCCC(=O)OCCOCC(OCCO)C1OCC(OCCO)C1OCCO (stereo not given) | 9.6 | 51.2% | 0.034 h | 8.9 | 18.5
13 | CSc1ccc(/C=C2\OC(=O)c3ccccc32)cc1 | 7.9 | 49.5% | 0.0363 h | 9.9 | 17.7
